Experimental data: patent US20250177566A1, “USE OF CHEMICAL EPIGENETIC MODIFIERS TO MODULATE GENE EXPRESSION” (The University of North Carolina at Chapel Hill, priority 2022, published 2025)

Columns and labels:
Assay type in all cases: cell-based, human
TRE3G-GFP reporter gene = TRE3G-GFP reporter gene activation in HCT116, dCas9 + MS2-FKBP*x2 (F36V) system, flow cytometry; parameters: fold change, GFP: reference not given here; conditions: FIG. 5A, 10 nM, 48 hrs
CXCR4 [1] = experiment: CXCR4 mRNA activation in HCT116 stably expressing dCas9 and MS2-FKBP*x2, qRT-PCR; conditions: for fold change, CXCR4 mRNA (CEM Treated vs Non-Treated): 48 hrs; for fold change, CXCR4 mRNA (CXCR4 gRNA vs NT gRNA): FIG. 3B; for fold change, CXCR4 mRNA (CXCR4 gRNA vs NT gRNA) / fold change, CXCR4 mRNA (washout vs AP1867 competition) / fold change, CXCR4 mRNA (Compare to 0 h): CEM203 50 nM; for fold change, CXCR4 mRNA (washout vs AP1867 competition): FIG. 3C; for fold change, CXCR4 mRNA (Compare to 0 h): FIG. 7A
Description: To further explore the activation potential of the SLF*-CEMa, their ability to target endogenous genes was evaluated (FIGS. 2A and 2B). Lentivirus was used to establish a stable HCT116 cell line expressing dCas9 and MS2-FKBP*x2 constructs, selecting for cells with antibiotic resistance. […] All CEMs were screened for their ability to activate the CXCR4 gene at 5 nM (FIG. 2C). RNA extraction and quantitative RT-PCR (qRT-PCR) were performed after 48 hours of CEM treatment.
To determine the optimal treatment concentration of the SLF*-CEMa molecules in this context, HCT116 cells were treated with 1 nM, 5 nM, 25 nM, and 50 nM of CEM203, CEM207, or CEM87. […] After 48 hours, RNA extraction followed by qRT-PCR was performed to evaluate the change in mRNA expression of CXCR4 (FIG. 2D). […] To directly compare this induced activation to other CRISPR-Cas9-based epigenetic activators, dCas9-VPR and dCas9-p300 constructs were virally infected into HCT116 cells and CXCR4 activation assessed in a similar fashion (FIGS. 2A and 2B).
To determine the time at which SLF*-CEMa most effectively induces gene activation, CXCR4 gene expression changes over time were investigated in dCas9 and MS2-FKBP*x2 stably infected HCT116 cells. Cells were treated with either vehicle, […] (FIG. 3A). RNA extraction and qRT-PCR were performed at 12, 24, 48, 72, and 96 hrs time points (FIG. 3B).
To investigate if endogenous gene activation triggered by the SLF*-CEMa compounds is also reversible, HCT116 cells were treated with CEM203 (50 nM) or CEM207 (25 nM) for 24 hours after transfecting CXCR4 gRNA, and then the CEMs were removed by media exchange at various time points. […] Likewise, it was investigated whether treatment with excess AP1867 could further reverse gene activation, potentially in a more robust fashion than with washout alone if there is any remaining intracellular SLF*-CEMa. To test this, after 24 hours of SLF*-CEMa treatment, a media exchange containing 20 μM AP1867 was performed (FIGS. 3C and 3D).
RNA extraction and qRT-PCR. All RNA extraction experiments were conducted in 12-well plate format. Culturing medium was removed, and cells were washed with 1×PBS, following with 0.05% trypsin to disassociate. After being quenched by medium and centrifuged, cells were washed with 1×PBS, and the RNA extraction was performed by using RNeasy Plus Mini kit (Qiagen, 74134). RT-qPCR was conducted by using RNA-to CT 1-step kit (Thermo Fisher Scientific, 4389986). The primer sets used in quantifying each gene can be found in Table 4.

CXCR4 [2] = experiment: CXCR4 mRNA activation in HCT116 stably expressing dCas9 and MS2-FKBPx2 (WT-FKBP), qRT-PCR; conditions: FIG. 6, WT FKBP system, 48 hrs

CC[C@H](C(=O)N1CCCC[C@H]1C(=O)O[C@H](CCc1ccc(OC)c(OC)c1)c1cccc(OCC(=O)NCCOCCOCCOCCOCCNC(=O)C[C@@H]2N=C(c3ccc(Cl)cc3)c3cc(OC)ccc3-n3c(C)nnc32)c1)c1cc(OC)c(OC)c(OC)c1 [CEM203, (1R)-1-(3-((20-((4S)-6-(4-Chlorophenyl)-8-methoxy-1-methyl-4H-benzo[f][1,2,4]triazolo[4,3-a][1,4]diazepin-4-yl)-2,19-dioxo-6,9,12,15-tetraoxa-3,18-diazaicosyl)oxy)phenyl)-3-(3,4-dimethoxyphenyl) propyl (2S)-1-((S)-2-(3,4,5-trimethoxyphenyl)butanoyl) piperidine-2-carboxylate]
fold change, GFP (TRE3G-GFP reporter gene; NT gRNA): 0.7 fold
fold change, GFP (TRE3G-GFP reporter gene; TRE3G gRNA): 9.4 fold
fold change, CXCR4 mRNA (CEM Treated vs Non-Treated) (CXCR4 [1]; FIG. 2D, CXCR4 gRNA, 1 nM): 2.3 fold
fold change, CXCR4 mRNA (CEM Treated vs Non-Treated) (CXCR4 [1]; FIG. 2D, CXCR4 gRNA, 5 nM): 13.0 fold
fold change, CXCR4 mRNA (CEM Treated vs Non-Treated) (CXCR4 [1]; FIG. 2D, CXCR4 gRNA, 25 nM): 35.9 fold
fold change, CXCR4 mRNA (CEM Treated vs Non-Treated) (CXCR4 [1]; FIG. 2D, CXCR4 gRNA, 50 nM): 54.0 fold
fold change, CXCR4 mRNA (CEM Treated vs Non-Treated) (CXCR4 [1]; FIG. 2D, NT gRNA, 1 nM): 0.98 fold
fold change, CXCR4 mRNA (CEM Treated vs Non-Treated) (CXCR4 [1]; FIG. 2D, NT gRNA, 5 nM): 1.30 fold
fold change, CXCR4 mRNA (CEM Treated vs Non-Treated) (CXCR4 [1]; FIG. 2D, NT gRNA, 25 nM): 2.42 fold
fold change, CXCR4 mRNA (CEM Treated vs Non-Treated) (CXCR4 [1]; FIG. 2D, NT gRNA, 50 nM): 2.57 fold
CXCR4 activation compared to dCas9-p300 (CXCR4 [1]; FIG. 2D, concentrations above 5 nM): higher CXCR4 activation
fold change, CXCR4 mRNA (CXCR4 gRNA vs NT gRNA) (CXCR4 [1]; 24 h): 17.9 fold
fold change, CXCR4 mRNA (CXCR4 gRNA vs NT gRNA) (CXCR4 [1]; 48 h): 19.8 fold
fold change, CXCR4 mRNA (CXCR4 gRNA vs NT gRNA) (CXCR4 [1]; 48 h AP1867 (washout with 20 μM AP1867 after 24 hrs)): 3.6 fold
fold change, CXCR4 mRNA (CXCR4 gRNA vs NT gRNA) (CXCR4 [1]; 48 h wash (media washout after 24 hrs)): 7.7 fold
fold change, CXCR4 mRNA (CXCR4 gRNA vs NT gRNA) (CXCR4 [1]; 72 h): 13.1 fold
fold change, CXCR4 mRNA (CXCR4 gRNA vs NT gRNA) (CXCR4 [1]; 72 h AP1867 (washout with 20 μM AP1867 after 24 hrs)): 1.9 fold
fold change, CXCR4 mRNA (CXCR4 gRNA vs NT gRNA) (CXCR4 [1]; 72 h wash (media washout after 24 hrs)): 5.6 fold
fold change, CXCR4 mRNA (CXCR4 gRNA vs NT gRNA) (CXCR4 [1]; 96 h AP1867 (washout with 20 μM AP1867 after 24 hrs)): 1.2 fold
fold change, CXCR4 mRNA (CXCR4 gRNA vs NT gRNA) (CXCR4 [1]; 96 h wash (media washout after 24 hrs)): 3.3 fold
fold change, CXCR4 mRNA (washout vs AP1867 competition) (CXCR4 [1]; 48 h): 1.5 fold
fold change, CXCR4 mRNA (washout vs AP1867 competition) (CXCR4 [1]; 72 h): 4.2 fold
fold change, CXCR4 mRNA (washout vs AP1867 competition) (CXCR4 [1]; 96 h): 1.7 fold
fold change, CXCR4 mRNA (Compare to 0 h) (CXCR4 [1]; NT gRNA, 12 h): 4.9 fold
fold change, CXCR4 mRNA (Compare to 0 h) (CXCR4 [1]; NT gRNA, 24 h): 2.2 fold
fold change, CXCR4 mRNA (Compare to 0 h) (CXCR4 [1]; NT gRNA, 48 h): 1.1 fold
fold change, CXCR4 mRNA (Compare to 0 h) (CXCR4 [1]; NT gRNA, 48 h AP1867 (washout with 20 μM AP1867 after 24 hrs)): 0.8 fold
fold change, CXCR4 mRNA (Compare to 0 h) (CXCR4 [1]; NT gRNA, 48 h wash (media washout after 24 hrs)): 0.7 fold
fold change, CXCR4 mRNA (Compare to 0 h) (CXCR4 [1]; NT gRNA, 72 h): 1.0 fold
fold change, CXCR4 mRNA (Compare to 0 h) (CXCR4 [1]; NT gRNA, 72 h AP1867 (washout with 20 μM AP1867 after 24 hrs)): 0.6 fold
fold change, CXCR4 mRNA (Compare to 0 h) (CXCR4 [1]; NT gRNA, 72 h wash (media washout after 24 hrs)): 0.8 fold
fold change, CXCR4 mRNA (Compare to 0 h) (CXCR4 [1]; NT gRNA, 96 h): 1.3 fold
fold change, CXCR4 mRNA (Compare to 0 h) (CXCR4 [1]; NT gRNA, 96 h AP1867 (washout with 20 μM AP1867 after 24 hrs)): 0.5 fold
fold change, CXCR4 mRNA (Compare to 0 h) (CXCR4 [1]; NT gRNA, 96 h wash (media washout after 24 hrs)): 0.7 fold
CXCR4 mRNA expression after CEM washout in comparison to cells continuously treated (CXCR4 [1]; FIGS. 3C and 3D, CEM203 50 nM or CEM207 25 nM for 24 hours, then media exchange, all time points): significantly lowered CXCR4 mRNA expression
time point of highest (peak) CXCR4 mRNA activation (CXCR4 [1]; time course 12, 24, 48, 72, 96 hrs, CXCR4 gRNA): 24 h
fold change, CXCR4 mRNA (CXCR4 gRNA vs NT gRNA) (CXCR4 [2]; 25 nM): 1.5 fold
fold change, CXCR4 mRNA (CXCR4 gRNA vs NT gRNA) (CXCR4 [2]; 200 nM): 3.5 fold
